Experimental data published in the NIST ThermoML archive (doi:10.1021/je020189p).
Where “and” joins values, the source holds several entries; their conditions need not be identical. Equal values may be shown once.

Details: Crystal

[I][Tb]([I])[I] [terbium triiodide]
Details | vapor or sublimation pressure
861 K | 1.91e-05 kPa
871 K | 2.82e-05 kPa
879 K | 3.31e-05 kPa
883 K | 4.27e-05 kPa
884 K | 3.8e-05 kPa and 5.01e-05 kPa
885 K | 5.01e-05 kPa
891 K | 4.79e-05 kPa
892 K | 6.17e-05 kPa
895 K | 7.08e-05 kPa
897 K | 6.61e-05 kPa and 5.75e-05 kPa
900 K | 0.0001 kPa
902 K | 9.12e-05 kPa
903 K | 7.59e-05 kPa
907 K | 0.000126 kPa
909 K | 0.000115 kPa and 9.55e-05 kPa
911 K | 0.000151 kPa
912 K | 0.000132 kPa
913 K | 0.000123 kPa
915 K | 0.000115 kPa
917 K | 0.000174 kPa
920 K | 0.000141 kPa
921 K | 0.0002 kPa
922 K | 0.000186 kPa
926 K | 0.000209 kPa
927 K | 0.000182 kPa and 0.000251 kPa
928 K | 0.000251 kPa
929 K | 0.000229 kPa
930 K | 0.00024 kPa
931 K | 0.000209 kPa
935 K | 0.00024 kPa
936 K | 0.000339 kPa
937 K | 0.000347 kPa
938 K | 0.000316 kPa
939 K | 0.000339 kPa
940 K | 0.000339 kPa and 0.000282 kPa
942 K | 0.000676 kPa
944 K | 0.000447 kPa
945 K | 0.000479 kPa
947 K | 0.000407 kPa and 0.000363 kPa
948 K | 0.000468 kPa and 0.000427 kPa
951 K | 0.00055 kPa
952 K | 0.001 kPa
953 K | 0.000447 kPa and 0.000603 kPa
955 K | 0.000955 kPa
958 K | 0.000661 kPa and 0.000631 kPa
959 K | 0.000692 kPa and 0.000741 kPa
961 K | 0.000776 kPa
963 K | 0.000661 kPa
964 K | 0.00135 kPa
966 K | 0.000891 kPa and 0.000955 kPa
967 K | 0.000912 kPa and 0.000977 kPa
971 K | 0.00105 kPa and 0.00166 kPa and 0.001 kPa
972 K | 0.00191 kPa and 0.0012 kPa
973 K | 0.00117 kPa and 0.00115 kPa and 0.000955 kPa
975 K | 0.00186 kPa
976 K | 0.00135 kPa
977 K | 0.00141 kPa
979 K | 0.00141 kPa
980 K | 0.00148 kPa and 0.00138 kPa
981 K | 0.00123 kPa
983 K | 0.00151 kPa and 0.0024 kPa
985 K | 0.00186 kPa
986 K | 0.00182 kPa and 0.0017 kPa
987 K | 0.00288 kPa and 0.00191 kPa
988 K | 0.00288 kPa and 0.00178 kPa and 0.00155 kPa
990 K | 0.00288 kPa
992 K | 0.00234 kPa
993 K | 0.00219 kPa
994 K | 0.00229 kPa and 0.00182 kPa
995 K | 0.0024 kPa and 0.00389 kPa
998 K | 0.00282 kPa [middle of 4 runs]
1001 K | 0.00282 kPa
1002 K | 0.0024 kPa
1003 K | 0.00288 kPa and 0.00501 kPa
1004 K | 0.00479 kPa and 0.00339 kPa
1005 K | 0.00479 kPa
1006 K | 0.00309 kPa
1008 K | 0.00339 kPa and 0.00389 kPa
1009 K | 0.00282 kPa and 0.0038 kPa
1012 K | 0.00575 kPa and 0.00676 kPa
1013 K | 0.00447 kPa
1015 K | 0.00437 kPa
1016 K | 0.00708 kPa
1017 K | 0.00525 kPa
1018 K | 0.00501 kPa
1019 K | 0.00759 kPa
1020 K | 0.00912 kPa
1021 K | 0.00617 kPa
1022 K | 0.0055 kPa
1026 K | 0.00661 kPa
1027 K | 0.00977 kPa
1028 K | 0.00955 kPa
1029 K | 0.00676 kPa and 0.0117 kPa and 0.00692 kPa
1033 K | 0.00813 kPa
1036 K | 0.0129 kPa
1037 K | 0.00891 kPa and 0.0132 kPa
1039 K | 0.0162 kPa
1043 K | 0.0162 kPa
1044 K | 0.0115 kPa
1049 K | 0.0195 kPa and 0.0204 kPa and 0.0224 kPa
1050 K | 0.0135 kPa
1057 K | 0.0245 kPa
1058 K | 0.0174 kPa
1059 K | 0.0263 kPa and 0.0309 kPa
1064 K | 0.0209 kPa and 0.0309 kPa
1066 K | 0.0316 kPa and 0.038 kPa
1070 K | 0.0263 kPa
1072 K | 0.0389 kPa
1077 K | 0.0324 kPa
1078 K | 0.0457 kPa
